In general, melting point refers to the temperature of the solid-liquid transition. For `Nc1ncc(CCCc2cccc3ccccc23)c(N)n1`, the melting point lay in the range of 179 to 181 °C.
`Cc1cccc(NC(=O)NC2N=C(C3CCCCC3)c3cccc(C)c3N(CC(=O)C3CCCCC3)C2=O)c1` (stereo not given) displayed a melting point of 159 to 170 °C.
As for `Cc1nnc(Cl)c(-c2c(F)cc(F)cc2F)c1-c1ccc(Cl)nc1`, the melting point is 182 to 183 °C.
Turning to `CC(C)(C)OC(=O)Nc1ccc(Nc2nc(-c3ccc4cc(OCc5ccccc5)ccc4c3)cc3ccnn23)cc1`, the melting point came to 189 °C.
With `COC(=O)c1sc(C(=O)OC)c(-c2ccoc2)c1O` the figure was 102 °C.
Consider `Cc1c2c(nc3c(C(F)(F)F)cccc13)CCCNC2`, for which the melting point was determined as 78 °C.
`CCCC(=O)c1ccc(C(=O)O)cn1`: the melting point lay in the range of 128 to 130 °C.
In the case of `CC(=O)SCC(Cc1ccccc1)C(=O)NCc1ccc(C(=O)OCc2ccccc2)cc1` (stereo not given), the melting point lay within 142 to 143 °C.
Compound `COc1ccc(F)c2c(O)c3cnccc3cc12` displayed a melting point above 210 °C.
With `CCOc1ccc(/C=C(\NC(=O)c2ccc(OCC(C)C)cc2)C(=O)NCCO)cc1` the figure was 124 to 125 °C; with `Cc1ccccc1-n1cnc(OC(C)C(=O)O)n1` (stereo not given), 151 to 153 °C.
The value for `O=[N+]([O-])c1ccc(Sc2nccn2Cc2ccccc2)cc1` was 122 to 123 °C; that for `Cn1cc(-c2cccc(S(=O)(=O)n3ccc(/C=C/C(=O)NO)c3)c2)cn1` was 155 to 160 °C; that for `CS(=O)(=O)c1cc(C=O)cc(O)c1O` was 169 to 171 °C.
`CCC[C@H]1[C@@H](O)CC(=O)N1c1ccc(C#N)c(Cl)c1` came in with a melting point of 143 to 146 °C.
Consider `CCOC(=O)c1cc2ccccc2nc1C(Cl)(Cl)Cl`, for which the melting point lay within 66 to 75 °C.
The value for `N[C@H](C(=O)O)c1ccc(OCCOC2CCCCC2)cc1` was 219 to 220 °C.
The compound `COc1ccc2c(c1)c(Cc1nc(-c3ccc(Br)cc3)cs1)c(C)n2C(=O)c1ccc(Cl)cc1` registered a melting point of 177 to 180 °C.
With `COc1ccc(Cl)nc1N` the figure was 134 to 135 °C.
The compound `COc1ccc(CNc2cc(F)cc(C#N)c2)cc1` showed a melting point of 93 to 94 °C.
The value for `O=C(O)[C@@H]1CC2(CN1C(=O)OCc1ccccc1)OCCO2` was 179 to 180 °C.
`Cc1cc(-c2ccc(C#N)cc2)nc(-c2cccc(-c3cccc(S(N)(=O)=O)c3)n2)n1` registered a melting point of 255 °C.
With `COC(=O)CCCc1cc2nc(Cl)ccc2n1S(=O)(=O)c1ccc2snnc2c1` the figure was 219 °C; with `Cc1ccc(S(=O)(=O)N2CCC[C@H]2C(=O)N[C@@H](Cc2ccc(OCCN3CCCCCC3)cc2)C(=O)O)cc1`, 105 to 107 °C; with `CC1CC(NC(=O)C(F)(F)F)=NN1c1ccc(C(=O)C(F)(F)F)cc1` (stereo not given), 189 to 190 °C.
With `Cn1c2cc(Cl)ccc2c2c(CO)nn(-c3ccccc3)c(=O)c21` the figure was 219 to 220 °C; with `O=C(O)c1ccc(-c2c([N+](=O)[O-])oc3c2ccc2ccccc23)cc1`, above 300 °C.
Compound `C=CC[C@H](CC(=O)OC(C)(C)C)C(=O)N[C@H](C(=O)N[C@H](COC)c1ccccc1)C(C)C` registered a melting point of 155 to 157 °C.
The value for `N#Cc1ccc2c(c1)NC(=O)C2c1ncnc2nn(C3CCCC3)cc12` (stereo not given) was 340 to 344 °C; that for `CCOC(=O)c1nc(-c2ccc([N+](=O)[O-])c(C)c2)[nH]c1-c1ccc(OC)cc1` was 187 to 191 °C; that for `COC(=O)/C(=C/C=C/c1cc2ccccc2n1C)OC` was 93 to 94 °C.
With `CC(C)(C)[C@@H](CO)NC(=O)[C@@H](CC(=O)O)n1ccc(-c2ccc(-c3ccc(C#N)cc3)cc2)c1` the figure was 110 to 112 °C.
In the case of `COc1ccc(C2CNC(=O)NC2)cc1OC(F)F`, the melting point is 215 to 216 °C.
With `CC(C)c1cccc(-c2ccc(F)cc2)c1/C=C/COc1ccc(C(=O)C(=O)O)cc1` the figure was 142 to 143 °C.
Compound `CCOC(=O)c1cn(C2CC2)c2c(Br)c(F)c(F)cc2c1=O` yielded a melting point of 164 to 168 °C.
In turn, `CCOC(=O)NCCOc1ccc(Oc2cc(F)cc(F)c2)cc1` displayed a melting point of 54 to 56 °C.
On to `COc1cc(C(C)=O)c(OC)c2c1C(C)(C)CCC2(C)C`, for which the melting point came out at 97 °C.
With `N#CCCN(CCC#N)CC(=O)O` the figure was 73 °C.
The compound `CN1CCC(=O)C(C2c3ccccc3Oc3ccccc32)C1` (stereo not given) returned a melting point of 160 to 162 °C.
Compound `NC(=O)c1c(C(=O)O)cnn1-c1ccc(Br)cc1` gave a melting point of 251 to 252 °C.
With `O=c1[nH]c2scnc2c2ccccc12` the figure was above 200 °C; with `CC(=O)NC1=C(N)C(=O)c2cc(C)c(C)cc2C1=O`, 212 to 216 °C; with `CCCc1c(OCCCOc2ccc3c(=O)cc(C(=O)O)oc3c2CCC)ccc(C(C)=O)c1O`, 173 to 174 °C.
With `CNC(=S)NCCSCc1cncs1` the figure was 86 to 88 °C; with `COc1cc(Nc2c(C#N)cnc3cc(OCc4cccs4)c(OC)cc23)c(Cl)cc1Cl`, 194 to 196 °C.
In turn, `CCc1nc(C(=O)c2ccc(Cl)cc2Cl)c(C(C)O)n1C(CC)CC` (stereo not given) returned a melting point of 125 to 126 °C.
The value for `N#Cc1ccccc1NC(=O)c1snnc1C1CC1` was 124 °C.
In the case of `Cc1cc(SC2=C(O)CC(CCc3cccs3)(C(C)C)OC2=O)c(C(C)(C)C)cc1CO` (stereo not given), the melting point fell in the range of 73 to 77 °C.
The compound `CSc1sc(C(=O)O)c2c1-c1nn(C)cc1CC2` gave a melting point of 290 to 291 °C.
On to `CC(=O)OCC(C)(C)C(Cl)CC(Cl)(Cl)Cl` (stereo not given), for which the melting point fell in the range of 56 to 58 °C.
The value for `Nc1ccccc1CNC(=O)C1Cc2ccccc2N1S(=O)(=O)c1ccc(-c2ccc(F)cc2F)cc1` (stereo not given) was 93 to 96 °C.
`N#CC1(N2CCCCC2)CCCCC1` registered a melting point of 66 to 68 °C.
The value for `CCOC[C@@H]1CNCC[C@@H]1c1ccc(Cl)c(Cl)c1` was 68 to 70 °C; that for `O=C(O)c1cn(-c2ccc(F)cc2F)c2nc(Cl)c(F)cc2c1=O` was 242 to 244 °C.
With `CC(=CCCCC(C)(C)O)c1cccc(C=Cc2cc(O)cc(O)c2)c1` the figure was 55 to 60 °C; with `CCn1c(=O)c(-c2c(Cl)cccc2Cl)cc2cnc(Nc3ccccc3)nc21`, 223 to 225 °C; with `CC1(C)C(=O)N(c2ccc(C#N)c(C(F)(F)F)c2)C(=S)N1CCCO`, 149 to 150 °C.
With `CC(=O)NC[C@H]1CN(c2ccc(C3=CCOCC3)c(F)c2)C(=O)O1` the figure was 148 to 151 °C.
Take `CC(C)(C#N)CN1C(=O)C2(OCCCO2)c2cc(Cl)ccc21`: the melting point fell in the range of 114 to 116 °C.
`C=C(C)/C=C(\NC(C)=O)C1(c2ccc(Cl)cc2)CCC1`: the melting point was found to be 120 °C.
The value for `Cc1nc2c3c(c(C(=O)N(C)C)cc2n1C)CC[C@@H](c1ccccc1F)O3` was 199 to 201 °C; that for `Cc1ccc(-c2c(NS(=O)(=O)c3ccc(C(C)(C)COc4ncc(Br)cn4)cc3)ncnc2OCCOc2ncc(Br)cn2)cc1` was 156 to 158 °C; that for `COc1ccc(-c2ccc3c(C(=O)N(C)C)c(-c4ccccc4)ccc3c2)cc1` was 171 to 173 °C.
The value for `CC1(C)CCOc2cc(O)ccc21` was 88 to 88.5 °C; that for `O=C(O)CCc1cc(OCCCc2cn(-c3ccc(C(F)(F)F)cn3)nc2C2CCCCC2)nn1C1CCCCC1` was 190 to 191 °C; that for `Nc1ccc(Oc2c(Cl)cc(C(F)(F)F)cc2Cl)cc1` was 128 to 130 °C.
The value for `COc1ccc(Cl)c(Oc2c(Cl)ncnc2Cl)c1` was 88 to 89 °C; that for `Cn1c(=O)c(C(=O)O)nc2cc(F)c([N+](=O)[O-])cc21` was 173 to 175 °C; that for `CC(N)=CC(=O)C1CNC(C)S1(=O)=O` (stereo not given) was 113 to 115 °C.
As to `COc1cc2c(cc1OC)-c1cc(Cl)nc(=O)n1CC2`, the melting point is 235 to 236 °C.
With `O=S(=O)(Nc1cccc2cc(-c3nccs3)[nH]c12)c1cccs1` the figure was 164 to 165 °C; with `O=C1C2CCCN2c2ncccc2N1Cc1ccccc1` (stereo not given), 222 to 225 °C.
The value for `CCc1cc(Oc2ccc(S(C)(=O)=O)nc2)cc2cc(C3=NCC(CC(=O)N4CCS(=O)CC4)S3)[nH]c12` (stereo not given) was 194 to 196 °C; that for `COC(=O)Cc1sc(=S)[nH]c1COc1ccccc1` was 138 °C; that for `Cc1cccc(C(O)c2ocnc2C)c1` (stereo not given) was 76.5 to 77.5 °C.
`O=C1NN(C(=O)c2ccccc2NCc2ccccc2)Cc2ccccc21` showed a melting point of 206 to 208 °C.
Take `Cc1ncsc1C(C)(O)c1cc2ccccc2o1` (stereo not given): the melting point was 139 to 140 °C.
For the compound `CC(C)NC(=O)c1ccc(N2CCC(N3C(=O)OCc4ccccc43)CC2)nn1`, the melting point is 120 °C.
In the case of `CCOC(=O)NC(=O)CN(C)C(=O)c1c(F)ccc2c(C(F)(F)F)c(OC)ccc12`, the melting point fell in the range of 130 to 132 °C.
With `O=C(O)Cc1cc(C(=O)c2ccccc2)ccc1O` the figure was 205 °C.
Compound `CCc1cccc2ccc(C=O)c(OCOC)c12` gave a melting point of 41.5 to 42.5 °C.
Turning to `CCC(=O)C(=C1NCCCS1)[N+](=O)[O-]`, the melting point was in the range of 77.5 to 79.5 °C.
Consider `Fc1cccc2c1OC1CN(Cc3ccccc3)CC1O2` (stereo not given), for which the melting point was in the range of 80 to 81 °C.
With `Cc1cccc(C(O)CSC(=S)Nc2ccc(Cl)cn2)c1` (stereo not given) the figure was 122 °C.
For `CC(C)(O)C(=O)Nc1ccc(S(=O)(=O)c2ccccc2)cc1F`, the melting point is 156 °C.
With `COC(=O)CCC#Cc1cc(Cl)ccc1NS(=O)(=O)c1ccc2nc(NC(C)=O)sc2c1` the figure was 85 °C; with `CC(C)(C)c1ccc(S(=O)(=O)N2c3ccccc3C[C@H]2C(=O)Cl)cc1`, 148 °C; with `CCOC(=O)c1cnc2c(c(C)nn2CC)c1Cl`, 70 to 74 °C.
The value for `O=C1CCCCN1[C@@H]1c2cc(C(F)(F)C(F)(F)C(F)(F)F)ccc2OC(CF)(CF)[C@H]1O` (relative stereo) was 156 to 157 °C; that for `CCc1ccnc(C(=O)c2[nH]c3ccc(C(F)(F)F)cc3c2CC(=O)O)c1` was 204 °C.
